# Measurements reported in US20090311237A1, “Combination therapy using a soluble hyaluronidase and a bisphosphonate” (priority 2008, published 2009).
# Like-named read-outs stand apart in the source and are kept apart here.
# Assay: Pharmacokinetics of ZA in pig serum after IV or SC infusion with or without rHuPH20 (LC-MS-MS, non-compartmental analysis)
# Format: in vivo
# Conditions: ZA […], rHuPH20 0 U/mL
# Method: A pharmacokinetic study of zoledronic acid (ZA) co-administered with rHuPH20 in female Yorkshire swines was conducted. The primary objective of the study was to determine the bioavailability of zoledronic acid dosed via subcutaneous (SC) co-administration with human recombinant hyaluronidase PH20 (rHuPH20) and to compare the overall exposure to an equivalent IV dose.
# Animals in Study Group 1 were dosed with 0.15 mg/kg ZA given via a 20-minute IV infusion. Animals in Study Groups 2 and 3 were dosed subcutaneously (SC) with 0.15 mg/kg ZA without and with rHuPH20, respectively, in different SC delivery volumes.
# Following ZA dose administration, serial blood samples were collected via vascular access ports (VAPs) for serum preparation and determination of ZA concentrations. Blood collection times were at 1, 3, 5, 10, 15, 20, 30, 45, and 60 minutes, and at 1.5, 2, 3, 4, 6, 8, 10, 24, 48, and 72 hours post dose. Urine samples were also collected to compare excretion characteristics between IV and SC routes of administration. Collection times for urine were at 15 minutes before dosing (−15 min.), continuously from dose initiation to 2 hours post dose, and at 4, 6, 8, and 24 hours post dose thereafter.
# Serum concentration of ZA was determined using a qualified LC-MS-MS assay after derivatization with diazomethane (Zhu, L S et al. (2006) Rapid Commun. Mass Spectrom. 20: 3421-3426; “Qualification Data of An LC-MS/MS Method for the Determination of Zoledronate in Porcine Serum”, MDS Pharma Services Study No. AA43671-01, Report Date 14 Sep. 2007). The assay range was from 2.0 to 400 ng/mL with a lower limit of quantitation (LLOQ) at 2.0 ng/mL. Urine concentration of ZA was determined by a similar well qualified LC-MS-MS method (“Qualification Data of An LC-MS/MS Method for the Determination of Zoledronate in Porcine Urine”, MDS Pharma Services Study No. AA43671-02, Report Date 14 Sep. 2007) with an assay LLOQ at 10 ng/mL.
# Pharmacokinetic (PK) analyses of ZA serum concentration versus time data were conducted using WinNonlin v5.1 (Pharsight, Mountain View, Calif.). Non-compartmental analysis was used for derivation of primary and secondary pharmacokinetic (PK) parameters. AUC, Cmax, and Tmax were compared between dose routes, between co-administration with rHuPH20, and with dose of rHuPH20.
# [1] = female, Yorkshire, pig, serum, intravenous, […], animal ID 57, Study Group 1, IV 20 min infusion, read-out: Zoledronic Acid Serum Concentration
# [2] = female, Yorkshire, pig, serum, intravenous, […], animal ID 61, Study Group 1, IV 20 min infusion, read-out: Zoledronic Acid Serum Concentration
structure (smiles),measurement,setting,value
"O=P(O)(O)C(O)(Cn1ccnc1)P(=O)(O)O [ZA, 1-hydroxy-2-(1H-imidazol-1-yl)ethylidene-1,1-bisphosphonic acid]",Zoledronic Acid Serum Concentration,"Time 6 h, pig ID 59, Study Group 2, SC, 100 mL, 16 min",BLQ (BLQ = below assay limit of quantification (2.0 ng/mL))
same,Zoledronic Acid Serum Concentration,"Time 8 h, pig ID 59, Study Group 2, SC, 100 mL, 16 min",BLQ (BLQ = below assay limit of quantification (2.0 ng/mL))
same,Zoledronic Acid Serum Concentration,"Time 8 h, pig ID 60, Study Group 2, SC, 100 mL, 16 min",BLQ (BLQ = below assay limit of quantification (2.0 ng/mL))
same,Zoledronic Acid Serum Concentration,"Time 8 h, pig ID 62, Study Group 2, SC, 50 mL, 8 min",BLQ (BLQ = below assay limit of quantification (2.0 ng/mL))
same,Zoledronic Acid Serum Concentration,"Time 8 h, pig ID 69, Study Group 2, SC, 25 mL, 4 min",BLQ (BLQ = below assay limit of quantification (2.0 ng/mL))
same,Zoledronic Acid Serum Concentration,"Time 10 h, pig ID 59, Study Group 2, SC, 100 mL, 16 min",BLQ (BLQ = below assay limit of quantification (2.0 ng/mL))
same,Zoledronic Acid Serum Concentration,"Time 10 h, pig ID 60, Study Group 2, SC, 100 mL, 16 min",BLQ (BLQ = below assay limit of quantification (2.0 ng/mL))
same,Zoledronic Acid Serum Concentration,"Time 10 h, pig ID 62, Study Group 2, SC, 50 mL, 8 min",BLQ (BLQ = below assay limit of quantification (2.0 ng/mL))
same,Zoledronic Acid Serum Concentration,"Time 10 h, pig ID 69, Study Group 2, SC, 25 mL, 4 min",BLQ (BLQ = below assay limit of quantification (2.0 ng/mL))
same,Zoledronic Acid Serum Concentration,"Time 10 h, pig ID 70, Study Group 2, SC, 10 mL, 1.6 min",BLQ (BLQ = below assay limit of quantification (2.0 ng/mL))
same,Zoledronic Acid Serum Concentration,"Time 24 h, pig ID 59, Study Group 2, SC, 100 mL, 16 min",BLQ (BLQ = below assay limit of quantification (2.0 ng/mL))
same,Zoledronic Acid Serum Concentration,"Time 24 h, pig ID 60, Study Group 2, SC, 100 mL, 16 min",BLQ (BLQ = below assay limit of quantification (2.0 ng/mL))
same,Zoledronic Acid Serum Concentration,"Time 24 h, pig ID 62, Study Group 2, SC, 50 mL, 8 min",BLQ (BLQ = below assay limit of quantification (2.0 ng/mL))
same,Zoledronic Acid Serum Concentration,"Time 24 h, pig ID 69, Study Group 2, SC, 25 mL, 4 min",BLQ (BLQ = below assay limit of quantification (2.0 ng/mL))
same,Zoledronic Acid Serum Concentration,"Time 24 h, pig ID 70, Study Group 2, SC, 10 mL, 1.6 min",BLQ (BLQ = below assay limit of quantification (2.0 ng/mL))
same,Zoledronic Acid Serum Concentration,"Time 48 h, pig ID 59, Study Group 2, SC, 100 mL, 16 min",BLQ (BLQ = below assay limit of quantification (2.0 ng/mL))
same,Zoledronic Acid Serum Concentration,"Time 48 h, pig ID 60, Study Group 2, SC, 100 mL, 16 min",BLQ (BLQ = below assay limit of quantification (2.0 ng/mL))
same,Zoledronic Acid Serum Concentration,"Time 48 h, pig ID 62, Study Group 2, SC, 50 mL, 8 min",BLQ (BLQ = below assay limit of quantification (2.0 ng/mL))
same,Zoledronic Acid Serum Concentration,"Time 48 h, pig ID 69, Study Group 2, SC, 25 mL, 4 min",BLQ (BLQ = below assay limit of quantification (2.0 ng/mL))
same,Zoledronic Acid Serum Concentration,"Time 48 h, pig ID 70, Study Group 2, SC, 10 mL, 1.6 min",BLQ (BLQ = below assay limit of quantification (2.0 ng/mL))
same,Zoledronic Acid Serum Concentration,"Time 72 h, pig ID 59, Study Group 2, SC, 100 mL, 16 min",BLQ (BLQ = below assay limit of quantification (2.0 ng/mL))
same,Zoledronic Acid Serum Concentration,"Time 72 h, pig ID 60, Study Group 2, SC, 100 mL, 16 min",BLQ (BLQ = below assay limit of quantification (2.0 ng/mL))
same,Zoledronic Acid Serum Concentration,"Time 72 h, pig ID 62, Study Group 2, SC, 50 mL, 8 min",BLQ (BLQ = below assay limit of quantification (2.0 ng/mL))
same,Zoledronic Acid Serum Concentration,"Time 72 h, pig ID 69, Study Group 2, SC, 25 mL, 4 min",BLQ (BLQ = below assay limit of quantification (2.0 ng/mL))
same,Zoledronic Acid Serum Concentration,"Time 72 h, pig ID 70, Study Group 2, SC, 10 mL, 1.6 min",BLQ (BLQ = below assay limit of quantification (2.0 ng/mL))
same,Zoledronic Acid Serum Concentration,"Time […], pig ID 60, Study Group 2, SC, 100 mL, 16 min",BLQ (BLQ = below assay limit of quantification (2.0 ng/mL))
same,Zoledronic Acid Serum Concentration,"Time […], pig ID 62, Study Group 2, SC, 50 mL, 8 min",BLQ (BLQ = below assay limit of quantification (2.0 ng/mL))
same,Zoledronic Acid Serum Concentration,"Time […], pig ID 69, Study Group 2, SC, 25 mL, 4 min",BLQ (BLQ = below assay limit of quantification (2.0 ng/mL))
same,Zoledronic Acid Serum Concentration,"Time […], pig ID 70, Study Group 2, SC, 10 mL, 1.6 min",BLQ (BLQ = below assay limit of quantification (2.0 ng/mL))
same,Zoledronic Acid Serum Concentration,"animal ID 57, Study Group 1, IV 20 min infusion, time 6 h",BLQ^a (BLQ = below assay limit of quantification (2.0 ng/mL))
same,Zoledronic Acid Serum Concentration,"animal ID 57, Study Group 1, IV 20 min infusion, time 8 h",BLQ (BLQ = below assay limit of quantification (2.0 ng/mL))
same,Zoledronic Acid Serum Concentration,"animal ID 57, Study Group 1, IV 20 min infusion, time 10 h",BLQ (BLQ = below assay limit of quantification (2.0 ng/mL))
same,Zoledronic Acid Serum Concentration,"animal ID 57, Study Group 1, IV 20 min infusion, time 24 h",BLQ (BLQ = below assay limit of quantification (2.0 ng/mL))
same,Zoledronic Acid Serum Concentration,"animal ID 57, Study Group 1, IV 20 min infusion, time 48 h",BLQ (BLQ = below assay limit of quantification (2.0 ng/mL))
same,Zoledronic Acid Serum Concentration,"animal ID 57, Study Group 1, IV 20 min infusion, time 72 h",BLQ (BLQ = below assay limit of quantification (2.0 ng/mL))
same,Zoledronic Acid Serum Concentration,"animal ID 57, Study Group 1, IV 20 min infusion, time […]",BLQ (BLQ = below assay limit of quantification (2.0 ng/mL))
same,Zoledronic Acid Serum Concentration,"animal ID 61, Study Group 1, IV 20 min infusion, time 6 h",BLQ (BLQ = below assay limit of quantification (2.0 ng/mL))
same,Zoledronic Acid Serum Concentration,"animal ID 61, Study Group 1, IV 20 min infusion, time 8 h",BLQ (BLQ = below assay limit of quantification (2.0 ng/mL))
same,Zoledronic Acid Serum Concentration,"animal ID 61, Study Group 1, IV 20 min infusion, time 10 h",BLQ (BLQ = below assay limit of quantification (2.0 ng/mL))
same,Zoledronic Acid Serum Concentration,"animal ID 61, Study Group 1, IV 20 min infusion, time 24 h",BLQ (BLQ = below assay limit of quantification (2.0 ng/mL))
same,Zoledronic Acid Serum Concentration,"animal ID 61, Study Group 1, IV 20 min infusion, time 48 h",BLQ (BLQ = below assay limit of quantification (2.0 ng/mL))
same,Zoledronic Acid Serum Concentration,"animal ID 61, Study Group 1, IV 20 min infusion, time 72 h",BLQ (BLQ = below assay limit of quantification (2.0 ng/mL))
same,Zoledronic Acid Serum Concentration,"animal ID 61, Study Group 1, IV 20 min infusion, time […]",BLQ (BLQ = below assay limit of quantification (2.0 ng/mL))
same,Zoledronic Acid Serum Concentration,"animal ID 67, Study Group 1, IV 20 min infusion, time 6 h",BLQ (BLQ = below assay limit of quantification (2.0 ng/mL))
same,Zoledronic Acid Serum Concentration,"animal ID 67, Study Group 1, IV 20 min infusion, time 8 h",BLQ (BLQ = below assay limit of quantification (2.0 ng/mL))
same,Zoledronic Acid Serum Concentration,"animal ID 67, Study Group 1, IV 20 min infusion, time 10 h",BLQ (BLQ = below assay limit of quantification (2.0 ng/mL))
same,Zoledronic Acid Serum Concentration,"animal ID 67, Study Group 1, IV 20 min infusion, time 24 h",BLQ (BLQ = below assay limit of quantification (2.0 ng/mL))
same,Zoledronic Acid Serum Concentration,"animal ID 67, Study Group 1, IV 20 min infusion, time 48 h",BLQ (BLQ = below assay limit of quantification (2.0 ng/mL))
same,Zoledronic Acid Serum Concentration,"animal ID 67, Study Group 1, IV 20 min infusion, time 72 h",BLQ (BLQ = below assay limit of quantification (2.0 ng/mL))
same,Zoledronic Acid Serum Concentration,"animal ID 67, Study Group 1, IV 20 min infusion, time […]",BLQ (BLQ = below assay limit of quantification (2.0 ng/mL))
same,concentration at 0.016 h,[1],255 ng/mL
same,concentration at 0.05 h,[1],446 ng/mL
same,concentration at 0.333 h,[1],388 ng/mL
same,concentration at 0.5 h,"female, Yorkshire, pig, serum, intravenous, […], animal ID 57, Study Group 1, IV 20 min infusion, time 0.50 h, read-out: Zoledronic Acid Serum Concentration",244 ng/mL
same,concentration at 1 h,"female, Yorkshire, pig, serum, intravenous, […], animal ID 57, Study Group 1, IV 20 min infusion, time 1.00 h, read-out: Zoledronic Acid Serum Concentration",71.4 ng/mL
same,concentration at 2 h,"female, Yorkshire, pig, serum, intravenous, […], animal ID 57, Study Group 1, IV 20 min infusion, time 2 h, read-out: Zoledronic Acid Serum Concentration",15.4 ng/mL
same,concentration at 3 h,"female, Yorkshire, pig, serum, intravenous, […], animal ID 57, Study Group 1, IV 20 min infusion, time 3 h, read-out: Zoledronic Acid Serum Concentration",5.8 ng/mL
same,concentration at 4 h,"female, Yorkshire, pig, serum, intravenous, […], animal ID 57, Study Group 1, IV 20 min infusion, time 4 h, read-out: Zoledronic Acid Serum Concentration",2.8 ng/mL
same,concentration at 0.016 h,[2],254 ng/mL
same,concentration at 0.05 h,[2],196 ng/mL
same,concentration at 0.333 h,[2],596 ng/mL
same,concentration at 0.5 h,"female, Yorkshire, pig, serum, intravenous, […], animal ID 61, Study Group 1, IV 20 min infusion, time 0.5 h, read-out: Zoledronic Acid Serum Concentration",299 ng/mL
same,concentration at 1 h,"female, Yorkshire, pig, serum, intravenous, […], animal ID 61, Study Group 1, IV 20 min infusion, time 1 h, read-out: Zoledronic Acid Serum Concentration",85.5 ng/mL
